Test results taken from ChEMBL document CHEMBL1158676, “Aurilol, a Cytotoxic Bromotriterpene Isolated from the Sea Hare Dolabella auricularia” (J Nat Prod, 1998).
Values after ≈ are worked out from the molar mass of the structure shown.

Experiment: Cytotoxicity against human HeLaS3 cells
Format: functional, cell-based
Conditions: HeLa S3

CC(C)(O)[C@H](O)CC[C@@](C)(O)[C@@H]1CC[C@](C)([C@@H]2CC[C@@H]([C@@]3(C)CC[C@@H]4OC(C)(C)[C@H](Br)CC[C@@]4(C)O3)O2)O1 [AURILOL]
IC50: 4.3 µg/mL (≈ 7.1 µM)
